# According to patent US9700024B2 (priority 2010, dated 2017):
# “Also recorded” adds a separate entry of the source.
# B1: recombinant PIGF: recombinant placental growth factor 2 (literature) (protein)
# chain: VHSQGALSAGNNSTEVEVVPFNEVWGRSYCRPMEKLVYILDEYPDEVSHIFSPSCVLLSRCSGCCGDEGLHCVPIKTANITMQILKIPPNRDPHFYVEMTFSQDVLCECRPILETTKAERRKTKGKRKRSRNSQTEEPHP
# Columns and labels:
# [1] = system: rat model of preeclampsia; details: Hypertension 2007; 50(4): 686-92; cited from earlier work
# [2] = system: human umbilical vein endothelial cells (HUVECs); experiment: In vitro expression of PIGF as an effect of statin, HUVEC; format: cell-based; details: statin 1 μM or 10 μM, 24 hours
# Method: For HUVEC cells, each of the stock solutions was added upon dilution to 1 μM or 10 μM in a culture medium.
# HUVEC and HEK293T cells were plated at 2×10^4 and 1×10^5 cells per well in 6-well plates, respectively, and incubated under 5% CO2 at 37° C. After 24 hours, the medium was replaced with a fresh medium containing or not containing a statin. The media collected after another 24 hours were centrifuged at 1,000×g, and the supernatants were subjected to ELISA.
# [3] = system: pups of the pravastatin-treated female animals; experiment: Deformity in pups of treated female animals
# [4] = system: mVEGF; experiment: mVEGF concentration in the mother's blood by ELISA; format: in vivo, mouse; details: E18.5; LV-hsFLT1 model; pravastatin every day from E7.5; n=6
# Method: (§1) Blood samples were allowed to clot and were centrifuged to prepare serum samples. Concentrations of hsF1T1, mVEGF, and mPIGF were measured with ELISA kits, according to the manufacturer's instructions (R&D system). Aspartate aminotransferase (AST) and alanine transaminase (ALT) were measured by Fuji dry-chem 3500V and dri-chem slides (Fuji Film.co). Urine samples were collected at E18.5. Urine albumin and creatinine concentrations were measured by using the Fuji dry-chem 3500V and dri-chem slides (Fuji Film.co, Tokyo Japan).
# [5] = system: hsFLT1; experiment: hsFLT1 concentration in the mother's blood by ELISA; format: in vivo, mouse; details: E18.5; LV-hsFLT1 100 ng-p24/mL; pravastatin every day from E7.5 where given; mean±s.e.m.
# Method: as §1
# [6] = system: pregnancy-induced hypertension syndrome model mice (placenta-specific hsFLT1 expression); experiment: Urinary albumin/creatinine (proteinuria) in model mice; format: in vivo, mouse; details: urine at E18.5; average ± S.E.M.
# Method: as §1
# [7] = system: mPIGF; experiment: mPIGF concentration in the mother's blood by ELISA, LV-hsFLT1 model; format: in vivo, mouse; details: E18.5, pravastatin every day from E7.5, n=7
# Method: as §1
# [8] = system: wild-type pregnant mice; details: normal pregnant animals without LV-hsFLT1
# Method: Blood pressure was measured by the tail-cuff method (Softron Ltd, Tokyo, Japan). The mice were lightly fixed in a small cage without anesthesia, and their blood pressure was measured after their behavior, heart rate, and blood pressure stabilized. After stabilization, both systolic and diastolic blood pressures were recorded at least five times until the stabilization became unstable. Mean values of both the systolic and diastolic blood pressures measured as mentioned above were used for further statistical analysis.
# [9] = system: mPIGF; experiment: Circulating mPIGF in wild-type female mice not treated with viral vector; format: in vivo, mouse
# Method: Pravastatin sodium salt (Cayman Chemical) was dissolved in 100% ethanol to produce a stock solution (1 mg/mL), which was diluted by sterile PBS (25 μg/mL) before use and intraperitoneally injected every day starting from E7.5 to E18.5 at 5 μg/animal unless specifically instructed otherwise.
# as §1
# [10] = system: hypertension induced by sFLT1 expressed by an adenovirus; details: Hypertension 2009; 54(5): 1129-35; cited from earlier work
molecule,measurement,setting,value
VEGF,hypertension,[1],improves hypertension
"CC(C)c1c(C(=O)Nc2ccccc2)c(-c2ccccc2)c(-c2ccc(F)cc2)n1CC[C@@H](O)C[C@@H](O)CC(=O)O [atorvastatin, (−)-Monocalcium bis {(3R,5R)-7-[2-(4-fluorophenyl-5-isopropyl-3-phenyl-4-phenylcarbamoyl-1H-pyrrol-1-yl]-3,5-dihydroxyheptanoate}trihydrate]",PIGF production in supernatant,[2],induced PGF production; also recorded: induce PIGF production
"CC[C@H](C)C(=O)O[C@H]1C[C@H](O)C=C2C=C[C@H](C)[C@H](CC[C@@H](O)C[C@@H](O)CC(=O)O)[C@H]21 [pravastatin, Monosodium(3R,5R)-3,5-dihydroxy-7-{(1S,2S,6S,8S,8aR)-6-hydroxy-2-methyl-8-[(2S)-2-methylbutanoyloxy]-1,2,6,7,8,8a-hexahydronaphthalen-1-yl}heptanoate]",deformity in the pups,[3],did not notice any deformity
same,mVEGF protein level in maternal blood,[4],35.5 ± 13.6 pg/mL
same,circulating hsFLT1 concentration in the mother's blood,[5],0.99 ± 0.65 ng/mL
same,ALBUMIN/CREATININE AVERAGE,[6],4.06 ± 0.38
same,mPIGF concentration in maternal blood,[7],116.6 ± 13.2 pg/mL
same,blood pressure / hypotensive effect,[8],not hypotensive; also recorded: did not change
same,circulating mPIGF,"[9]; wild-type non-pregnant female animals, n=5",29.8 ± 13.2 pg/mL
same,circulating mPIGF,"[9]; wild-type pregnant female animals, n=4",152.0 ± 19.7 pg/mL
B1,hypertension,[10],improves hypertension
